Calls of active or inactive are those of the source. The rule behind the calls is not given here.
Key:
K562 [1] = assay: Antiproliferative activity against human K562 cells assessed as inhibition of cell viability incubated for 72 hrs by real time live-cell imaging technique; type: functional, cell-based; conditions: K562, 72 h
K562 [2] = assay: Inhibition of STAT signalling in human K562 cells up to 10 uM incubated for 48 hrs by human phospho-kinase array; type: cell-based
[3] = molecular target: Cyclin-dependent kinase inhibitor 1B (Homo sapiens) (UniProt P46527); assay: Induction of p27 phosphorylation at T198 residues in human K562 cells up to 10 uM incubated for 48 hrs by human phospho-kinase array; type: cell-based
K562 [4] = assay: Inhibition of MAPK signalling in human K562 cells assessed as effect on JNK phosphorylation up to 10 uM incubated for 48 hrs by human phospho-kinase array; type: cell-based
[5] = molecular target: Serine/threonine-protein kinase AKT (Homo sapiens) (UniProt P31751+Q9Y243+P31749); assay: Inhibition of AKT1/2/3 phosphorylation (S473/T308 residues) in human K562 cells up to 10 uM incubated for 48 hrs by human phospho-kinase array; type: cell-based
Chain of Serine/threonine-protein kinase AKT (Homo sapiens) (P31749 whole entry, looked up): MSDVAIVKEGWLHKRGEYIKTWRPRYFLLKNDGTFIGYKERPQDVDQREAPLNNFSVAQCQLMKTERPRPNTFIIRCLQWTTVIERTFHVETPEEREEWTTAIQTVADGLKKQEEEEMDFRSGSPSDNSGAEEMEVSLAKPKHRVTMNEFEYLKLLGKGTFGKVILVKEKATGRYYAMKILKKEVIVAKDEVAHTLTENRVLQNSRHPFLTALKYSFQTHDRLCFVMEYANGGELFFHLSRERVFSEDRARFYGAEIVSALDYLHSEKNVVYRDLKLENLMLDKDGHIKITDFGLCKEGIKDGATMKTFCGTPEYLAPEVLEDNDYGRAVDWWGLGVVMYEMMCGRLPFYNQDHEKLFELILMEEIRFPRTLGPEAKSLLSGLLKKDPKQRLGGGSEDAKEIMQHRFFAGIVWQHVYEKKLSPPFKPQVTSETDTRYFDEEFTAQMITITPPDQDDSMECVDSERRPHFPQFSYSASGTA
Chain of Serine/threonine-protein kinase AKT (Homo sapiens) (P31751 whole entry, looked up): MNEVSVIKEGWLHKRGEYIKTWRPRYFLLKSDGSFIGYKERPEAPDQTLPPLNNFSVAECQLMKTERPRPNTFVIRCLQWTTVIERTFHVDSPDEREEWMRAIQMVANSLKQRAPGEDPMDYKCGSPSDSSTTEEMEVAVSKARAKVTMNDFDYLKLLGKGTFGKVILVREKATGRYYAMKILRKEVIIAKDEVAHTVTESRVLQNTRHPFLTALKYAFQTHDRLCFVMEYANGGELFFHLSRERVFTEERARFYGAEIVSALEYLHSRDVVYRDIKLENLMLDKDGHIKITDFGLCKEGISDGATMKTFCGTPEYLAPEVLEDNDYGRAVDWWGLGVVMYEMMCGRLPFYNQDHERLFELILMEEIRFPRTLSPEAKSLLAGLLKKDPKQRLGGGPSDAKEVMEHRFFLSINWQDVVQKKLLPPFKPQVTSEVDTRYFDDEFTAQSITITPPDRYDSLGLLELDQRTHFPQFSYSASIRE
Chain of Serine/threonine-protein kinase AKT (Homo sapiens) (Q9Y243 whole entry, looked up): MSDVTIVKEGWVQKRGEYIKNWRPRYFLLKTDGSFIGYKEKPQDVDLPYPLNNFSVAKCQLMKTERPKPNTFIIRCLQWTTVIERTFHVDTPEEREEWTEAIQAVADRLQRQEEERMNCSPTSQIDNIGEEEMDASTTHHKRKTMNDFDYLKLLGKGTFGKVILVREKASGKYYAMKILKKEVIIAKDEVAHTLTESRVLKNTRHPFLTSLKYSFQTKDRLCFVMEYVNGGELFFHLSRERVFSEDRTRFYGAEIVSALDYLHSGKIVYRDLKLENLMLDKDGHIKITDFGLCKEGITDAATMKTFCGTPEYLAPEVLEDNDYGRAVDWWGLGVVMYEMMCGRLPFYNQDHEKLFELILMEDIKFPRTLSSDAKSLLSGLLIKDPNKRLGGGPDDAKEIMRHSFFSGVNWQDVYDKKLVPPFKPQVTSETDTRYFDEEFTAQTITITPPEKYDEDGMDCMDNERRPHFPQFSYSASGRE

K562 [6] = assay: Inhibition of MAPK signalling in human K562 cells assessed as effect on p38 phosphorylation up to 10 uM incubated for 48 hrs by human phospho-kinase array; type: cell-based
K562 [7] = assay: Inhibition of RAF/MEK/ERK signalling n human K562 cells assessed as reduction in ERK1/2 phosphorylation at T202/Y204, T185/Y187 residues up to 10 uM incubated for 48 hrs by human phospho-kinase array; type: cell-based
K562 [8] = assay: Induction of apoptosis in human K562 cells assessed as increase in apoptotic cells at 10 uM incubated for 24 to 48 hrs by Caspase-3/7 reagent-based fluorescence assay; type: functional, cell-based
K562 [9] = assay: Inhibition of PI3K/Akt signaling in human K562 cells assessed as reduction in mTOR phosphorylation at S2448 residues up to 10 uM incubated for 48 hrs by human phospho-kinase array; type: cell-based
K562 [10] = assay: Inhibition of RAF/MEK/ERK signalling n human K562 cells assessed as reduction in RSK1/2/3 phosphorylation at S380/S386/S377 residues up to 10 uM incubated for 48 hrs by human phospho-kinase array; type: cell-based
[11] = molecular target: Tyrosine-protein kinase Lck (Homo sapiens) (UniProt P06239); assay: Inhibition of LCK phosphorylation in human K562 cells up to 10 uM incubated for 48 hrs by human phospho-kinase array; type: cell-based
K562 [12] = assay: Inhibition of PI3K/Akt signaling in human K562 cells assessed as reduction in GSK3alpha/beta phosphorylation at S21/S9 residues up to 10 uM incubated for 48 hrs by human phospho-kinase array; type: cell-based
[13] = molecular target: Proline-rich AKT1 substrate 1 (Homo sapiens) (UniProt Q96B36); assay: Inhibition of PRAS40 phosphorylation at T246 residue in human K562 cells up to 10 uM incubated for 48 hrs by human phospho-kinase array; type: cell-based
K562 [14] = assay: Inhibition of MAPK signalling in human K562 cells assessed as effect on HSP27 phosphorylation up to 10 uM incubated for 48 hrs by human phospho-kinase array; type: cell-based
[15] = molecular target: Proto-oncogene tyrosine-protein kinase Src (Homo sapiens) (UniProt P12931); assay: Inhibition of SRC phosphorylation in human K562 cells up to 10 uM incubated for 48 hrs by human phospho-kinase array; type: cell-based
Chain of Proto-oncogene tyrosine-protein kinase Src (Homo sapiens) (P12931 2-536 limits assumed): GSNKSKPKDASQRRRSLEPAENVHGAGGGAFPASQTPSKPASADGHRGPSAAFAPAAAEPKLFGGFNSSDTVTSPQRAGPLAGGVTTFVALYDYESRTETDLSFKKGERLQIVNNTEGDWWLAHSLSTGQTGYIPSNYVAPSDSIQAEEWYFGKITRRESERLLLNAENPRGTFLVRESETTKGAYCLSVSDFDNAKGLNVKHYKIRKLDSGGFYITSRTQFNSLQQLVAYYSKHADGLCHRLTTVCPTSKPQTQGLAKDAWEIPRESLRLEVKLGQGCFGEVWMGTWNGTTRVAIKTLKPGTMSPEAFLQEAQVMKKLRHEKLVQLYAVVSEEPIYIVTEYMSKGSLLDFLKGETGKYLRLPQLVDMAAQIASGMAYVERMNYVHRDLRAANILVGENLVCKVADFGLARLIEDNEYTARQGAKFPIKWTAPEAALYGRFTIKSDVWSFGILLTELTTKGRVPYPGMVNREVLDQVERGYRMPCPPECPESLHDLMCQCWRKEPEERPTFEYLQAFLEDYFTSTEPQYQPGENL

K562 [16] = assay: Inhibition of PI3K/Akt signaling in human K562 cells assessed as reduction in p70S6K phosphorylation at T421/S424 residues up to 10 uM incubated for 48 hrs by human phospho-kinase array; type: cell-based
[17] = molecular target: Serine/threonine-protein kinase WNK1 (Homo sapiens) (UniProt Q9H4A3); assay: Inhibition of WNK1 phosphorylation at T60 residue in human K562 cells up to 10 uM incubated for 48 hrs by human phospho-kinase array; type: cell-based
Chain of Serine/threonine-protein kinase WNK1 (Homo sapiens) (Q9H4A3 whole entry, looked up): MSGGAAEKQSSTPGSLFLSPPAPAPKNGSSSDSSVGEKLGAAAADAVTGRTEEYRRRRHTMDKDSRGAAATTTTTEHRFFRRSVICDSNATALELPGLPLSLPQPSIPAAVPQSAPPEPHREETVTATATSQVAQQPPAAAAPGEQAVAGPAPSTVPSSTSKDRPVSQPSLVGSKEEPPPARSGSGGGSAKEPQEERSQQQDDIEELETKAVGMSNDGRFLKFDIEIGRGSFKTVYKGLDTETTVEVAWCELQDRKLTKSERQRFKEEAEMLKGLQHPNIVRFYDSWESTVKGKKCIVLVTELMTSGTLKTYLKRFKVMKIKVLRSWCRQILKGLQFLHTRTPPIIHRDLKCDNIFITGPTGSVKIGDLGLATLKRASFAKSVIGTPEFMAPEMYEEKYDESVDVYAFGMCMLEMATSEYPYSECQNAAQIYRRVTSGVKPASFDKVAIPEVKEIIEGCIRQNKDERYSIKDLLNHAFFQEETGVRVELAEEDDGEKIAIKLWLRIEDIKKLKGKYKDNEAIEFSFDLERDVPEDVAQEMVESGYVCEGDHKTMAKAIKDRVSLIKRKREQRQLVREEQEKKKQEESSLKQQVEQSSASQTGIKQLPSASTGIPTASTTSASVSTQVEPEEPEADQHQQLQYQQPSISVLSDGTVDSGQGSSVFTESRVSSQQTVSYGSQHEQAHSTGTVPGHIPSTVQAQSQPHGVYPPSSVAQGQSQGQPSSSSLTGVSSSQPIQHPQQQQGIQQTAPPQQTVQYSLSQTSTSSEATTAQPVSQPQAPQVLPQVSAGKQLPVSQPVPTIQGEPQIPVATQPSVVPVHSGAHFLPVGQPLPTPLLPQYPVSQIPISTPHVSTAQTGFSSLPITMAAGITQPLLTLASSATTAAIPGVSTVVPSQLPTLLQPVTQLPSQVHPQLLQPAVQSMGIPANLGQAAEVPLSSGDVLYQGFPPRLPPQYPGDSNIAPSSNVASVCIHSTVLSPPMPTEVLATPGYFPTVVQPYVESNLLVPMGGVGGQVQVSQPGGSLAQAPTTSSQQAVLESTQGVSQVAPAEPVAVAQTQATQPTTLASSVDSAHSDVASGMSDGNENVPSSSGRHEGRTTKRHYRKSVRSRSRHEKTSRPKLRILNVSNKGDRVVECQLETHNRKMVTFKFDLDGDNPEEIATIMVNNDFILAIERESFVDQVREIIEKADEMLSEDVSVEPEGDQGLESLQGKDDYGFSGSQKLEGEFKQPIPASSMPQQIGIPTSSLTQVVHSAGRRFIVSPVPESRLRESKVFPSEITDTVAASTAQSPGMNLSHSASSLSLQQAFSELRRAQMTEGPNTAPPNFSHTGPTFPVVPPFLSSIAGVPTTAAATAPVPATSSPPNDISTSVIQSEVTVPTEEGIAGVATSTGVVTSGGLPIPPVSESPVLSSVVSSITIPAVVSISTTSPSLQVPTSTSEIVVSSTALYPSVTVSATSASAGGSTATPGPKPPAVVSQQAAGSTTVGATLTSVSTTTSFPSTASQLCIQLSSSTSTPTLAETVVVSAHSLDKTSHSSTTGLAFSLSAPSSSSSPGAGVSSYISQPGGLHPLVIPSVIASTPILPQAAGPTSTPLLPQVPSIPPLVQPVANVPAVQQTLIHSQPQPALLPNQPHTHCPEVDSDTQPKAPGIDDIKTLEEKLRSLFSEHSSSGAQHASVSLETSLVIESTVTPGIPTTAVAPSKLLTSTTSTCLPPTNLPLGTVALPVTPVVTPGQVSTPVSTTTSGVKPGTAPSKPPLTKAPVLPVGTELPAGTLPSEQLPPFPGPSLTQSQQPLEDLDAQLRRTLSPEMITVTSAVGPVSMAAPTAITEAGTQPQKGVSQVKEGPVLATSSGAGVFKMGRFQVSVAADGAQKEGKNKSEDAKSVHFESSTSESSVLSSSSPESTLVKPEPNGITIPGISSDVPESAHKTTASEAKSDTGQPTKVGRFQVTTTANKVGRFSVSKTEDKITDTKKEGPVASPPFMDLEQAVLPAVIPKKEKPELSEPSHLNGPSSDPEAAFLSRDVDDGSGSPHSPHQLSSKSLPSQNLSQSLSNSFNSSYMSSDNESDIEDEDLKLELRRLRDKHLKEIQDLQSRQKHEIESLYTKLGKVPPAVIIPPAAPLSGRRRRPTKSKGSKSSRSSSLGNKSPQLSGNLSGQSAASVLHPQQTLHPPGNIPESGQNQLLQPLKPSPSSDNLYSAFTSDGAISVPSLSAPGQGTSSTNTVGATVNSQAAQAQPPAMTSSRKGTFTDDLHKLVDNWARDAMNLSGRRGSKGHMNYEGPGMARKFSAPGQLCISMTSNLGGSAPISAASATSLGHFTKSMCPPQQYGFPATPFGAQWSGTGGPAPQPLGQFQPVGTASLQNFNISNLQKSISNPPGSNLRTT

[18] = molecular target: Protein-tyrosine kinase 2-beta (Homo sapiens) (UniProt Q14289); assay: Inhibition of PYK2 phosphorylation in human K562 cells up to 10 uM incubated for 48 hrs by human phospho-kinase array; type: cell-based
[19] = molecular target: Cellular tumor antigen p53 (Homo sapiens) (UniProt P04637); assay: Induction of p53 phosphorylation at S392, S46, S15 residues in human K562 cells up to 10 uM incubated for 48 hrs by human phospho-kinase array; type: cell-based
Chain of Cellular tumor antigen p53 (Homo sapiens) (P04637 whole entry, looked up): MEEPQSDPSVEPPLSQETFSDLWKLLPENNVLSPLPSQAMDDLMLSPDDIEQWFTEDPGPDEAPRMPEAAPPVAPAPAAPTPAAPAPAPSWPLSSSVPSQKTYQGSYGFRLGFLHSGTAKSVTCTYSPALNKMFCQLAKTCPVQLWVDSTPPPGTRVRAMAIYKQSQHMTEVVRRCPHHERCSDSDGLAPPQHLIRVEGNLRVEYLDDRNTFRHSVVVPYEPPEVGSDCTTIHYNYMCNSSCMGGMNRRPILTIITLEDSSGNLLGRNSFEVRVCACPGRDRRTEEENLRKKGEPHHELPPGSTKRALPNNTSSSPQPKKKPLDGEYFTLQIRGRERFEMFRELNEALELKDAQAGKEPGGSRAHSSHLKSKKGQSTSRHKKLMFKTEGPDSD

K562 [20] = assay: Induction of apoptosis in human K562 cells assessed as increase in apoptotic cells at 10 uM incubated for 48 hrs by Caspase-3/7 reagent-based fluorescence assay; type: functional, cell-based

**Q.** For `O=C(Nc1ccc(Cl)c(C(F)(F)F)c1)Nc1nnc(Sc2cc(NCCCN3CCOCC3)ncn2)s1`, which IC50 (K562 [1]) is on record?
**A.** 120 nM

**Q.** For `Cc1ccc(NC(=O)Nc2nnc(Sc3cc(OCCCN4CCOCC4)ncn3)s2)cc1`, which IC50 (K562 [1]) is on record?
**A.** 78 nM

**Q.** Which IC50 (K562 [1]) does the source give for `CCN(CC)CCCNc1cc(Sc2nnc(NC(=O)Nc3ccc(Cl)c(C(F)(F)F)c3)s2)ncn1` here?
**A.** 280 nM

**Q.** How did the IC50 (K562 [1]) turn out when `CCN(CC)CCCNc1cc(Sc2nnc(NC(=O)Nc3ccc(C)cc3)s2)ncn1` was run?
**A.** 14 nM

**Q.** `O=C(Nc1ccc(C(F)(F)F)cc1)Nc1nnc(Sc2cc(NCCCN3CCOCC3)ncn2)s1` was tested. Which inhibition (K562 [2]) did it give?
**A.** Active

**Q.** And the Activity [3]?
**A.** Active

**Q.** What about the inhibition (K562 [4]) of the same compound?
**A.** Active

**Q.** And the inhibition [5]?
**A.** Active

**Q.** And the IC50 (K562 [1])?
**A.** 38 nM

**Q.** And the inhibition (K562 [6])?
**A.** Active

**Q.** And the inhibition (K562 [7])?
**A.** Active

**Q.** And the Activity (K562 [8])?
**A.** Active

**Q.** What about the inhibition (K562 [9]) of the same compound?
**A.** Active

**Q.** What about the inhibition (K562 [10]) of the same compound?
**A.** Active

**Q.** What about the inhibition [11] of the same compound?
**A.** Active

**Q.** And the inhibition (K562 [12])?
**A.** Active

**Q.** What about the inhibition [13] of the same compound?
**A.** Active

**Q.** And the inhibition (K562 [14])?
**A.** Active

**Q.** And the inhibition [15]?
**A.** Active

**Q.** And the inhibition (K562 [16])?
**A.** Active

**Q.** What about the inhibition [17] of the same compound?
**A.** Active

**Q.** And the inhibition [18]?
**A.** Active

**Q.** And the Activity [19]?
**A.** Active

**Q.** `Cc1ccc(NC(=O)Nc2nnc(Sc3cc(NCCCN4CCOCC4)ncn3)s2)cc1` was tested. Which IC50 (K562 [1]) did it give?
**A.** 56 nM

**Q.** How did the IC50 (K562 [1]) turn out when `Cc1ccc(NC(=O)Nc2nnc(Sc3cc(NCCCN4CCOCC4)ncn3)s2)cc1Cl` was run?
**A.** 35 nM

**Q.** Which IC50 (K562 [1]) does the source give for `O=C(Nc1ccc(Cl)c(C(F)(F)F)c1)Nc1nnc(Sc2cc(OCCCN3CCOCC3)ncn2)s1` here?
**A.** 150 nM

**Q.** How did the IC50 (K562 [1]) turn out when `O=C(Nc1ccc(Cl)cc1)Nc1nnc(Sc2cc(NCCCN3CCOCC3)ncn2)s1` was run?
**A.** 110 nM

**Q.** How did the IC50 (K562 [1]) turn out when `Cc1ccc(NC(=O)c2ccc(CN3CCN(C)CC3)cc2)cc1Nc1nccc(-c2cccnc2)n1` [IMATINIB] was run?
**A.** 140 nM

**Q.** What about the Activity (K562 [20]) of the same compound?
**A.** Active

**Q.** Which IC50 (K562 [1]) does the source give for `COc1cccc(NC(=O)Nc2nnc(Sc3cc(NCCCN4CCOCC4)ncn3)s2)c1` here?
**A.** 690 nM
